From US4032659A (priority 1975, dated 1977)
Read-outs that look alike come from different tables or passages of the source.

What was measured:
Vaccinia virus [1] = format: in vivo; details: scarified rabbit skin
Herpes virus [2] = experiment: Herpes virus in eggs (chick embryo survival); format: in vivo, chicken eggs; details: for Deaths on day 1 / Deaths on day 3 / Deaths on day 4 / Total Deaths 4th Day / Deaths on day 2: 12 eggs
Influenza PR 8 virus = experiment: Chemoprophylaxis of Influenza PR 8 virus infection in mice; format: in vivo, mouse
Neurovaccinia virus = experiment: Neurovaccinia (intracerebral) in mice; details: mouse, in vivo
virus infections = experiment: Antiviral screening program, several viruses; details: mouse, in vivo
Mengo virus = Mengo virus infection in mice; format: in vivo, mouse; details: oral
Source text: The results are illustrated in Table 43.

[3] = tested on: Influenza Ann Arbor virus; experiment: Chemoprophylaxis of Influenza Ann Arbor (A1) virus infection in mice; format: in vivo, mouse
Herpes virus [4] = format: in vivo, mouse; details: oral
Vaccinia virus [5] = format: cell-based, fertile eggs; details: various concentrations
[6] = tested on: Influenza B Massachusetts virus; details: larger doses, different dose schedules; cited from earlier work

NNC(N)=S [Thiosemicarbazide, thiosemicarbazide]
effect on pox formation (Vaccinia virus [1]): highly significant diminution in the vaccinia pox formation | No. Living Longer Than Controls, total (Herpes virus [2]; all doses): 7 | Deaths on day 1 (Herpes virus [2]; dose 2 μg): 3 | Deaths on day 3 (Herpes virus [2]; dose 2 μg): 5 | Deaths on day 4 (Herpes virus [2]; dose 2 μg): 3 | Total Deaths 4th Day (Herpes virus [2]; dose 2 μg): 12 | Deaths on day 2 (Herpes virus [2]; dose 20 μg): 4 | Deaths on day 3 (Herpes virus [2]; dose 20 μg): 6 | Total Deaths 4th Day (Herpes virus [2]; dose 20 μg): 12 | Deaths on day 1 (Herpes virus [2]; dose .00005 μg): 2 | Deaths on day 2 (Herpes virus [2]; dose .00005 μg): 5 | Deaths on day 3 (Herpes virus [2]; dose .00005 μg): 2 | Total Deaths 4th Day (Herpes virus [2]; dose .00005 μg): 10 | Deaths on day 1 (Herpes virus [2]; dose .0005 μg): 2 | Deaths on day 2 (Herpes virus [2]; dose .0005 μg): 3 | Deaths on day 3 (Herpes virus [2]; dose .0005 μg): 2 | Deaths on day 4 (Herpes virus [2]; dose .0005 μg): 3 | Total Deaths 4th Day (Herpes virus [2]; dose .0005 μg): 10 | Deaths on day 1 (Herpes virus [2]; dose .005 μg): 4 | Deaths on day 2 (Herpes virus [2]; dose .005 μg): 3 | Deaths on day 3 (Herpes virus [2]; dose .005 μg): 3 | Total Deaths 4th Day (Herpes virus [2]; dose .005 μg): 10 | Deaths on day 2 (Herpes virus [2]; dose .05 μg): 3 | Deaths on day 3 (Herpes virus [2]; dose .05 μg): 5 | Total Deaths 4th Day (Herpes virus [2]; dose .05 μg): 9 | Deaths on day 1 (Herpes virus [2]; dose .5 μg): 3 | Deaths on day 2 (Herpes virus [2]; dose .5 μg): 4 | Deaths on day 3 (Herpes virus [2]; dose .5 μg): 2 | Deaths on day 4 (Herpes virus [2]; dose .5 μg): 2 | Total Deaths 4th Day (Herpes virus [2]; dose .5 μg): 11 | protection (Influenza PR 8 virus; intraperitoneal): almost no protection | Survivors (Influenza PR 8 virus; intraperitoneal, total dose 5 μg): 0 | Survivors (Influenza PR 8 virus; intraperitoneal, total dose .005 μg): 0 | Survivors (Influenza PR 8 virus; intraperitoneal, total dose .05 μg): 0 | Survivors (Influenza PR 8 virus; intraperitoneal, total dose .5 μg): 0 | Survivors (Influenza PR 8 virus; oral, total dose .005 μg): 3 | Survivors (Influenza PR 8 virus; oral, total dose .5 μg): 0 | Survivors (Influenza PR 8 virus; subcutaneous, total dose 5 μg): 3 | Survivors (Influenza PR 8 virus; subcutaneous, total dose .0005 μg): 0 | Survivors (Influenza PR 8 virus; subcutaneous, total dose .005 μg): 0 | surviving animals (three instances, single dose level) (Neurovaccinia virus): one | activity (in words) (virus infections): active against Influenza PR 8, Vaccinia in the mouse tail, Mengo virus, Herpes virus in mice and eggs, Influenza virus, and Vaccinia virus in rabbits | Survivors (Mengo virus; total dose .0000005 μg): 0 | No. animals surviving after 6 days (Mengo virus; total dose .000005 μg): 2 | Survivors (Mengo virus; total dose .000005 μg): 1 | No. animals surviving after 6 days (Mengo virus; total dose .00005 μg): 5 | Survivors (Mengo virus; total dose .00005 μg): 1 | Survivors (Mengo virus; total dose .0005 μg): 0 | Survivors (Mengo virus; total dose .005 μg): 0 | Survivors ([3]; oral, total dose .5 μg): 0 | No. animals surviving when 19/20 controls are dead (Herpes virus [4]; total dose 5 μg): 0 | No. animals surviving when 17/20 controls are dead (Herpes virus [4]; total dose .000005 μg): 0 | No. animals surviving when 17/20 controls are dead (Herpes virus [4]; total dose .00005 μg): 3 | Survivors (Herpes virus [4]; total dose .00005 μg): 3 | No. animals surviving after 7 days (Herpes virus [4]; total dose .0005 μg): 6 | No. animals surviving when 17/20 controls are dead (Herpes virus [4]; total dose .0005 μg): 0 | No. animals surviving after 7 days (Herpes virus [4]; total dose .005 μg): 6 | No. animals surviving when 17/20 controls are dead (Herpes virus [4]; total dose .05 μg): 0 | effect on pox formation on the membrane (Vaccinia virus [5]): No effect on pox formation on the membrane could be observed

NC12CC3CC(CC(C3)C1)C2 [Amantadine, amantadine, reference compound]
instances of a statistically significant number of survivors (Influenza PR 8 virus; 41 tests): one single instance | instances of increased geometric mean survival time (Influenza PR 8 virus; 41 tests): 11 | number of survivors in the single significant instance (Influenza PR 8 virus; 41 tests): 3 | activity (in words) (virus infections): inactive against all of the other viruses in the test system | tests with survivors (of 18 tests) ([3]; 18 tests): 5 | chemoprophylaxis (in words) [6]: ineffective against Influenza B Massachusetts
